Common to all, as to type: cell-based
One assay has as its target T1, hGPR65 I231L-SmBiT (Homo sapiens, UniProt Q8IYL9, I231L).
T1 construct: expressed in transfected cells; host or cells: Expi293F (Gibco), transient transfection
The assay is described as follows: Nano-BiT target engagement, LgBiT-mGs recruitment to hGPR65 I231L-SmBiT. The conditions noted are these: 10 μM. The procedure: (§1) Target engagement was measured in Expi293F (Gibco, 100044202) cells using the Nano-Glo Live Cell Assay System (Promega, N2011). Nano-BiT plasmids were cloned from GPR65-, GPR4-, and GPR68-Tango plasmids. GPR65-Tango (Addgene plasmid # 66370; http://n2t.net/addgene:66370; RRID:Addgene_66370), GPR4-Tango (Addgene plasmid # 66358; http://n2t.net/addgene:66358; RRID:Addgene_66358), and GPR68-Tango (Addgene plasmid # 66371; http://n2t.net/addgene:66371; RRID:Addgene_66371) were gifts from Bryan Roth. Expi293F cells were transfected 1 day before kinetics with 500 ng of each plasmid using ExpiFectamine 293 Transfection Kit (Gibco, A14525). After 24 hours, cells were collected, washed, and resuspended in room temperature 0.1% PBS-BSA, adjusted to pH 7.4 using 1 M NaOH. Cells were transferred to white opaque 96-well microplates (100 μl per well, PerkinElmer, 6005290), followed by addition of the Nano-Glo Live Cell Reagent (25 μl per well). Baseline luminescence was measured for 10 cycles (1 cycle = 90 s) before adding compounds. All luminescence measurements were made on BMG Labtech PHERAstar FSX. Data analysis was performed using GraphPad Prism.

Another assay deals with T2, mGPR65-SmBiT (Mus musculus, UniProt Q61038).
T2 construct: expressed in transfected cells; host or cells: Expi293F (Gibco), transient transfection
T2 sequence (Q61038 whole entry): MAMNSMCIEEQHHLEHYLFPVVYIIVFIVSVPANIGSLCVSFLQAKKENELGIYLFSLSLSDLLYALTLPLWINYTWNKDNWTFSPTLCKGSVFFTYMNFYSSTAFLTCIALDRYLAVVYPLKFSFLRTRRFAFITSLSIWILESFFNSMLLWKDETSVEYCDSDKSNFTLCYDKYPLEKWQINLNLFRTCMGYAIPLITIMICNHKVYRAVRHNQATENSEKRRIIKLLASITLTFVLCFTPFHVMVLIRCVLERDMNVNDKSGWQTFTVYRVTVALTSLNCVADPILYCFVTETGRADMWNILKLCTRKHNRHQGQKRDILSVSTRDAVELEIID
Kind of assay: Nano-BiT target engagement, LgBiT-mGs recruitment to mGPR65-SmBiT. The conditions noted are these: 10 μM. As for the experimental part:
as §1

For another assay, the target named is T3, hGPR65 (Homo sapiens, UniProt Q8IYL9).
T3 construct: expressed in transfected cells; host or cells: HeLa (ATCC CCL-2), lentiviral transduction, pLX317
T3 sequence (Q8IYL9 whole entry): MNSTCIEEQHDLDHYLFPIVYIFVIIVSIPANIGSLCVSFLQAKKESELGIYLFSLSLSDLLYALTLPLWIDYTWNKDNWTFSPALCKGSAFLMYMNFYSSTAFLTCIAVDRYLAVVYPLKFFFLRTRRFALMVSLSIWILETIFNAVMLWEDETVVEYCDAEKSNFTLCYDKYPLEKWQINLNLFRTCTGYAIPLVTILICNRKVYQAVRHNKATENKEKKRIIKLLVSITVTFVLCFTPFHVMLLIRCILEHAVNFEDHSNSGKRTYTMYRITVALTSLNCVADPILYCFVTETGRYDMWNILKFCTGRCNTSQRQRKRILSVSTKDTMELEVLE
Kind of assay: cAMP detection in HeLa expression cell line, hGPR65. Conditions: for Emax: HeLa, relative to 100uM forskolin (100%) and DMSO (0%), read-out: hGPR Max Activity %. In short, it runs like this:
(§2)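 Compound was dispensed from a 10 mM DMSO stock, and puromycin-selected HeLa lines carrying lentiviral V5-tagged receptor were added at 1500 cells/well in pH 7.2 stimulation buffer. After 30 min stimulation at room temperature, cells were lysed and detection ran 1 h in the dark before cAMP TR-FRET reading.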

A further assay addresses T4, hGPR65-SmBiT (Homo sapiens, UniProt Q8IYL9).
T4 construct: expressed in transfected cells; host or cells: Expi293F (Gibco), transient transfection
Kind of assay: Nano-BiT target engagement, LgBiT-mGs recruitment to hGPR65-SmBiT in Expi293F cells. In short, it runs like this: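 Expi293F cells co-transfected (500 ng each plasmid) with receptor-SmBiT and LgBiT-mGs constructs, assayed 24 h later in 0.1% PBS-BSA pH 7.4 at room temperature. Luminescence from Nano-Glo Live Cell Reagent recorded in 90 s cycles, with 10 baseline cycles before compound addition.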

In another assay the target is T5, mGPR65 (Mus musculus, UniProt Q61038).
T5 construct: expressed in transfected cells; host or cells: HeLa (ATCC CCL-2), lentiviral transduction, pLX317
T5 sequence (Q61038 whole entry): as the sequence (Q61038 whole entry) above
The assay is described as follows: cAMP detection in HeLa expression cell line, mGPR65. Conditions: for Emax: HeLa, relative to 100uM forskolin (100%) and DMSO (0%), read-out: mGPR Max Activity %. In short, it runs like this:
as §2

Setting [1] is: 1st hGPR column pair, NA = no activity.
[2] abbreviates: 2nd hGPR column pair, NA = no activity.
Setting [3] is: 2nd mGPR column pair, NA = no activity.

Where two headings read alike, the source gives them in different places.

T4 sequence (Q8IYL9 whole entry): as the sequence (Q8IYL9 whole entry) above
T1 sequence (Q8IYL9 whole entry I231L): as the sequence (Q8IYL9 whole entry) above, with I231L counted along it

With `Cc1ccc(NC(=O)c2cnn3c(O)cc(-c4ccc(COC(C)C)cc4)nc23)nc1` [BRD5075, O=C(NC1=NC=C(C)C=C1)C2=C3N(N=C2)C(O)=CC(C4=CC=C(COC(C)C)C=C4)=N3], at hGPR65 I231L-SmBiT, the “G protein recruitment in cells expressing hGPR65 I231L” value is recorded as “able to recruit G protein”. In addition, the “mGs recruitment / engagement of mGPR65” value at mGPR65-SmBiT is “showed engagement”. Moreover, on mGPR65-SmBiT (HCl or H2O at cycle 10), the “activity after HCl versus water, mGPR65” value is reported as “showed activity when preceded by the addition of HCl but not water”. The “mode of action from pH-dependent cAMP production” value on hGPR65 (0 to 50 μM, pH range of 6.6 to 7.6) is listed as “PAMs”. In addition, the “activity for hGPR65 among prioritized molecules” value at hGPR65 (1.56 μM, pH 7.2) is on record as “highest activity”. Further, the Emax on hGPR65 (setting [1]) was found to be 80.3%; at hGPR65 (setting [2]), 78.6%; at mGPR65 (setting [3]), 69.6%; at mGPR65 (NA = no activity), 70.8%. In addition, the EC50 at hGPR65 (hGPR EC50 (uM), NA = no activity) came to 0.377 µM; on hGPR65 (hGPR EC50 (uM), pH 7.2, 30 min), 1.2 µM; on hGPR65 (hGPR EC50, NA = no activity), 1.1 µM; on hGPR65 (hGPR EC50, pH 7.2, 30 min), 0.699 µM; on mGPR65 (mGPR EC50 (uM), 2nd mGPR column pair, NA = no activity) it was 0.952 µM; at mGPR65 (mGPR EC50 (uM), first pair of columns, pH 7.2, 30 min), 1.04 µM. Besides, the EC50 is 0.997 µM on mGPR65 (mGPR EC50 (uM), second pair of columns, pH 7.2, 30 min) and 0.892 µM on mGPR65 (mGPR EC50 (uM), NA = no activity). Further, the “cAMP activity, hGPR65” value at hGPR65 (pH 7.2) is reported as “at least 40%”. Besides, at hGPR65-SmBiT (0-50 μM), the “effect of concentration on mGs recruitment” value was “dose-dependent effect”. Further, at hGPR65-SmBiT (10 μM), the “mGs recruitment / engagement of hGPR65” value is listed as “showed engagement”. Also, the “activity after HCl versus water, hGPR65” value at hGPR65-SmBiT (10 μM, HCl or H2O at cycle 10) is “showed activity when preceded by the addition of HCl but not water”. Moreover, the “activity for mGPR65 among prioritized molecules” value at mGPR65 (1.56 μM, pH 7.2) is “highest activity”. The “cAMP response against mGPR65 among prioritized compounds” value on mGPR65 (HeLa cells) is listed as “highest cAMP response”. In addition, the “cAMP activity, mGPR65” value at mGPR65 (pH 7.2) is on record as “at least 40%”.
Regarding `CN1N=C(SCc2ccc(Cl)cc2Cl)Sc2c1cnn(C)c2=O` [BTB09089, reference compound], the “mGs recruitment / engagement of mGPR65” value on mGPR65-SmBiT is given as “increases in luminescence independent of pH changes”. For the same compound, the EC50 on hGPR65 (1st hGPR column pair, NA = no activity, read-out: hGPR EC50) was 6.35 µM; on hGPR65 (2nd hGPR column pair, NA = no activity, read-out: hGPR EC50), 1.37 µM; at mGPR65 (2nd mGPR column pair, NA = no activity, read-out: mGPR EC50), 0.458 µM. For the same compound, the Emax on hGPR65 (setting [1]) was found to be 53.5%; at hGPR65 (setting [2]), 31.1%; at mGPR65 (setting [3]), 76.4%; on mGPR65 (NA = no activity), 82.8%. At hGPR65-SmBiT (10 μM), the “mGs recruitment / engagement of hGPR65” value is recorded as “limited activity toward hGPR65”.

The term EC50 denotes the concentration at which the effect is half-maximal.

Values taken from paper PMC11259170, “Small-molecule probe for IBD risk variant GPR65 I231L alters cytokine signaling networks through positive allosteric modulation” (Science Advances, 2024).
